Results taken from PubChem BioAssay AID1845211 (Molecular Pharmacology Branch, DTP, NCI, 2023).

System: NCI-H322M multicellular tumor spheroids, viability (% test/control)
Assay: Anticancer human tumor NCI-H322M cell line growth inhibition;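 on viability, T/C: spheroids exposed to compound for seven days before readout; 100% = DMSO vehicle control wells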
Conditions: for IC50: curve of first compound; for viability, T/C: stronger effect = lower value
From the text: Multicellular complex tumor spheroid response to DNA repair inhibitors in combination with DNA-damaging drugs
This study explores the anticancer activities of DNA-damaging drugs and inhibitors of DNA damage repair, both as single agents and in combinations. Complex tumor spheroids comprised of malignant cells, endothelial cells and mesenchymal stem cells served as an in vitro model for human solid tumors. This model system incorporates physiologically relevant features and patient-derived or established malignant cell lines with clinically relevant genetic alterations from many tumor types. Twenty-six patient-derived or established malignant cell lines were evaluated representing sarcoma, melanoma, small cell lung cancer (SCLC), non-small cell lung cancer (NSCLC), as well as bladder, ovarian and pancreatic cancers. The concentration ranges selected for each drug and investigational agent were based upon clinically achievable concentrations if the clinical Cmax of the agent was known.
Compounds. The drugs and compounds olaparib (NSC753686), talazoparib (NSC767125), berzosertib (NSC777718), elimusertib (NSC800525), nedisertib (NSC802822), VX-984 (NSC792969), AZD-1390 (NSC803789), temozolomide (NSC362856), topotecan (NSC609699), trabectedin (NSC813783), staurosporine (NSC755774), and gemcitabine (NSC613327) were obtained from the National Cancer Institute (NCI) Developmental Therapeutics Program Chemical Repository. The FDA-approved anticancer drug set is available from the Developmental Therapeutics Program at https://dtp.cancer.gov/organization/dscb/obtaining/available_plates.htm. […] The stock solutions were prepared in dimethyl sulfoxide (DMSO, Sigma-Aldrich, St. Louis, MO, cat. D2650) at 400-fold the tested concentration and stored at -70 degrees C. Prior to their use, the stock solutions were diluted in fresh medium and the final DMSO concentration in the assay was 0.25% (v/v). All drugs and investigational agents were tested over a range starting from a high concentration at or near the clinical Cmax and decreasing in half-log increments. If the clinical Cmax for an agent had not been determined, the highest concentration tested was 10 microM.
Cell Lines. The patient-derived cancer cell (PDC) lines: 156681-154-R-J1-PDC, 283228-195-R-J1-PDC, 287954-098-R-J1-PDC, 292921-168-R-J2-PDC, 349418-098-R-PDC, 425362-245-T-J1-PDC, 556581-035-R-J1-PDC, and BL0293-F563-PDC were received from the NCI Patient-Derived Models Repository (PDMR, https://pdmr.cancer.gov). The established cell lines HS-SY-2 (RRID:CVCL_8719), MPNST, and SYO-1 (RRID:CVCL_7146) were obtained from the Sloan Kettering Institute. The alveolar soft parts sarcoma cell line ASPS-1 (RRID:CVCL_S738) was established at the NCI and grown from internal seed stocks. The following established cell lines were purchased from the American Type Culture Collection (ATCC, Manassas, VA): G-401 (ATCC, cat. CRL-1441, RRID:CVCL_0270), SW982 (ATCC, cat. HTB-93, RRID:CVCL_1734), VA-ES-BJ (ATCC, cat. CRL-2138, RRID:CVCL_1785), NCI-H719 (ATCC, cat. CRL-5837, RRID:CVCL_1582), NCI-H196 (ATCC, cat. CRL-5823, RRID:CVCL_1509), NCI-H841 (ATCC, cat. CRL-5845, RRID:CVCL_1595), NCI-H1618 (ATCC, cat. CRL-5879, RRID:CVCL_1480), NCI-H1876 (ATCC, cat. CRL-5902, RRID:CVCL_1503), DMS 114 (ATCC, cat. CRL-2066; RRID:CVCL_1174), NCI-H211 (ATCC, cat. CRL-5824; RRID:CVCL_1529), and SW 1271 (ATCC, cat. CRL-2177, RRID:CVCL_1716). The small cell lung cancer cell line COR-L88 was purchased from Sigma-Aldrich (cat. 92031917-1VL, RRID:CVCL_1141). The non-small cell lung cancer cell lines NCI-H226 (RRID:CVCL_1544) and NCI-H322M (RRID:CVCL_1557) were established at the NCI and grown from internal seed stocks. Pooled donor human umbilical vein endothelial cells (HUVEC, Lonza, cat. CC-2519) and human mesenchymal stem cells (hMSC, Lonza, cat. PT-2501) were purchased from Lonza (Walkersville, MD).
Cell Culture. All cells were maintained in an incubator at 37 degrees C and 5% CO2 with 95% humidity. […]

## Cc1cc(C)c(CNC(=O)c2cc(-c3ccc(CN4CCOCC4)cc3)cc3c2cnn3C2CCCC2)c(=O)[nH]1 + CC[C@@]1(O)C(=O)OCc2c1cc1n(c2=O)Cc2cc3c(CN(C)C)c(O)ccc3nc2-1
Second compound 0.003 µM
  IC50: > 10 µM
Second compound 0.00949 µM
  IC50: > 10 µM
Second compound 0.03 µM
  IC50: > 10 µM
Second compound 0.0949 µM
  IC50: > 10 µM
Second compound 0.3 µM
  IC50: > 10 µM
Second compound 0.003 µM, first compound 0.0316 µM
  viability, T/C: 89%
Second compound 0.003 µM, first compound 0.1 µM
  viability, T/C: 82.3%
Second compound 0.003 µM, first compound 0.316 µM
  viability, T/C: 83.7%
Second compound 0.003 µM, first compound 1 µM
  viability, T/C: 86.5%
Second compound 0.003 µM, first compound 3.16 µM
  viability, T/C: 81.2%
Second compound 0.003 µM, first compound 10 µM
  viability, T/C: 112%
Second compound 0.00949 µM, first compound 0.0316 µM
  viability, T/C: 76.4%
Second compound 0.00949 µM, first compound 0.1 µM
  viability, T/C: 80.6%
Second compound 0.00949 µM, first compound 0.316 µM
  viability, T/C: 86.2%
Second compound 0.00949 µM, first compound 1 µM
  viability, T/C: 81.6%
Second compound 0.00949 µM, first compound 3.16 µM
  viability, T/C: 79.9%
Second compound 0.00949 µM, first compound 10 µM
  viability, T/C: 105%
Second compound 0.03 µM, first compound 0.0316 µM
  viability, T/C: 77.3%
Second compound 0.03 µM, first compound 0.1 µM
  viability, T/C: 84.9%
Second compound 0.03 µM, first compound 0.316 µM
  viability, T/C: 77.3%
Second compound 0.03 µM, first compound 1 µM
  viability, T/C: 76.7%
Second compound 0.03 µM, first compound 3.16 µM
  viability, T/C: 84.8%
Second compound 0.03 µM, first compound 10 µM
  viability, T/C: 101%
Second compound 0.0949 µM, first compound 0.0316 µM
  viability, T/C: 64.5%
Second compound 0.0949 µM, first compound 0.1 µM
  viability, T/C: 61.5%
Second compound 0.0949 µM, first compound 0.316 µM
  viability, T/C: 56.1%
Second compound 0.0949 µM, first compound 1 µM
  viability, T/C: 71.7%
Second compound 0.0949 µM, first compound 3.16 µM
  viability, T/C: 71.5%
Second compound 0.0949 µM, first compound 10 µM
  viability, T/C: 82.2%
Second compound 0.3 µM, first compound 0.0316 µM
  viability, T/C: 54.7%
Second compound 0.3 µM, first compound 0.1 µM
  viability, T/C: 49.3%
Second compound 0.3 µM, first compound 0.316 µM
  viability, T/C: 52.5%
Second compound 0.3 µM, first compound 1 µM
  viability, T/C: 51.5%
Second compound 0.3 µM, first compound 3.16 µM
  viability, T/C: 48.2%
Second compound 0.3 µM, first compound 10 µM
  viability, T/C: 59.5%

## Cc1sc2c(c1C)C(c1ccc(Cl)cc1)=NC(CC(=O)Nc1ccc(O)cc1)c1nnc(C)n1-2 (stereo not given) + CC[C@@]1(O)C(=O)OCc2c1cc1n(c2=O)Cc2cc3c(CN(C)C)c(O)ccc3nc2-1
Second compound 0.003 µM
  IC50: > 3 µM
Second compound 0.00949 µM
  IC50: > 3 µM
Second compound 0.03 µM
  IC50: > 3 µM
Second compound 0.0949 µM
  IC50: > 3 µM
Second compound 0.3 µM
  IC50: > 3 µM
Second compound 0.003 µM, first compound 0.00949 µM
  viability, T/C: 105%
Second compound 0.003 µM, first compound 0.03 µM
  viability, T/C: 139%
Second compound 0.003 µM, first compound 0.0949 µM
  viability, T/C: 132%
Second compound 0.003 µM, first compound 0.3 µM
  viability, T/C: 134%
Second compound 0.003 µM, first compound 0.949 µM
  viability, T/C: 95.3%
Second compound 0.003 µM, first compound 3 µM
  viability, T/C: 76.2%
Second compound 0.00949 µM, first compound 0.00949 µM
  viability, T/C: 106%
Second compound 0.00949 µM, first compound 0.03 µM
  viability, T/C: 112%
Second compound 0.00949 µM, first compound 0.0949 µM
  viability, T/C: 140%
Second compound 0.00949 µM, first compound 0.3 µM
  viability, T/C: 118%
Second compound 0.00949 µM, first compound 0.949 µM
  viability, T/C: 79%
Second compound 0.00949 µM, first compound 3 µM
  viability, T/C: 77.2%
Second compound 0.03 µM, first compound 0.00949 µM
  viability, T/C: 107%
Second compound 0.03 µM, first compound 0.03 µM
  viability, T/C: 127%
Second compound 0.03 µM, first compound 0.0949 µM
  viability, T/C: 126%
Second compound 0.03 µM, first compound 0.3 µM
  viability, T/C: 103%
Second compound 0.03 µM, first compound 0.949 µM
  viability, T/C: 82.2%
Second compound 0.03 µM, first compound 3 µM
  viability, T/C: 73.7%
Second compound 0.0949 µM, first compound 0.00949 µM
  viability, T/C: 90.7%
Second compound 0.0949 µM, first compound 0.03 µM
  viability, T/C: 99.1%
Second compound 0.0949 µM, first compound 0.0949 µM
  viability, T/C: 112%
Second compound 0.0949 µM, first compound 0.3 µM
  viability, T/C: 89.2%
Second compound 0.0949 µM, first compound 0.949 µM
  viability, T/C: 79.8%
Second compound 0.0949 µM, first compound 3 µM
  viability, T/C: 64.4%
Second compound 0.3 µM, first compound 0.00949 µM
  viability, T/C: 74.5%
Second compound 0.3 µM, first compound 0.03 µM
  viability, T/C: 73.5%
Second compound 0.3 µM, first compound 0.0949 µM
  viability, T/C: 90.2%
Second compound 0.3 µM, first compound 0.3 µM
  viability, T/C: 80.5%
Second compound 0.3 µM, first compound 0.949 µM
  viability, T/C: 71%
Second compound 0.3 µM, first compound 3 µM
  viability, T/C: 58.1%
